Key:
Settings in all cases: banded MIC grade
Aspergillus flavus = assay: Minimum inhibitory concentration, YAG medium; assay type: cell-based
How it was run: (§1)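 Twofold aqueous dilution series, prepared from a DMSO stock (5 mg/mL), were inoculated with Aspergillus spp. spores; incubation lasted 24 hrs at 35° C before OD 485 nm readings.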

Aspergillus niger = assay: Minimum inhibitory concentration, YAG medium; assay type: cell-based
How it was run: as §1

Aspergillus terreus = assay: Minimum inhibitory concentration, YAG medium; assay type: cell-based
How it was run: as §1

A. fumigatus 210 = assay: Minimum inhibitory concentration, YAG medium; assay type: cell-based, Aspergillus fumigatus
How it was run: (§2)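 MICs (mg/L) reflect >70% inhibition of OD485 growth versus untreated control after 24 hrs at 35° C in YAG medium, spore inoculum 1-2×10^4 cfu/mL, drug range 50-0.05 mg/L.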

A. terreus 49 = assay: Minimum inhibitory concentration, YAG medium; assay type: cell-based, Aspergillus terreus
How it was run: as §1

C. albicans = assay: Minimum inhibitory concentration, RPMI medium; assay type: cell-based
How it was run: (§3)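 Incubated at 35° C for 24-48 hrs in RPMI 1640 with twofold water dilutions of compound (from 5 mg/mL stock in DMSO); absorbance at 485 nm indicated growth.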

C. tropicalis = assay: Minimum inhibitory concentration, RPMI medium; assay type: cell-based
How it was run: as §3

C. parapsilosis = assay: Minimum inhibitory concentration, RPMI medium; assay type: cell-based
How it was run: as §3

Aspergillus fumigatus = assay: Minimum inhibitory concentration, YAG medium; assay type: cell-based
How it was run: as §2

Row | SMILES | MIC grade, A. FLAVUS, YAG media (Aspergillus flavus) | MIC grade, A. NIGER, YAG media (Aspergillus niger) | MIC grade, A. TERREUS, YAG media (Aspergillus terreus) | MIC grade, A. FUMIGATUS 210, YAG media (A. fumigatus 210) | MIC grade, A. TERREUS 49, YAG media (A. terreus 49) | MIC grade, C. ALBICANS, RPMI media (C. albicans) | MIC grade, C. TROPICALIS, RPMI media (C. tropicalis) | MIC grade, C. PARAPSILOSIS, RPMI media (C. parapsilosis) | MIC grade, A. FUMIGATUS, YAG media (Aspergillus fumigatus)
1 | NC1=NN=C(CCCCOCc2ccccc2)CS1 | 4 (4: <0.2 mg/L) | 4 (4: <0.2 mg/L) | 4 (4: <0.2 mg/L) | 4 (4: <0.2 mg/L) | 4 (4: <0.2 mg/L) | 4 (4: <1 mg/L) | 4 (4: <1 mg/L) | 4 (4: <1 mg/L) | 4 (4: <0.2 mg/L)
2 | NC1=NN=C(c2ccc(Cl)cc2)CS1 | 3 (3: 0.2-1 mg/L) | 2 (2: 1-5 mg/L) | 3 (3: 0.2-1 mg/L) | 2 (2: 1-5 mg/L) | 3 (3: 0.2-1 mg/L) | 1 (1: ≥20 mg/L) | 1 (1: ≥20 mg/L) | 1 (1: ≥20 mg/L) | 3 (3: 0.2-1 mg/L)
3 | CCc1cccc(OCCCCCC2=NN=C(N)SC2)c1 | 4 (4: <0.2 mg/L) | 4 (4: <0.2 mg/L) | 4 (4: <0.2 mg/L) | 4 (4: <0.2 mg/L) | 4 (4: <0.2 mg/L) | 4 (4: <1 mg/L) | 4 (4: <1 mg/L) | 4 (4: <1 mg/L) | 4 (4: <0.2 mg/L)
4 | CCCCc1ccc(OCCCCCC2=NN=C(N)SC2)cc1 | 2 (2: 1-5 mg/L) | 3 (3: 0.2-1 mg/L) | 2 (2: 1-5 mg/L) | 2 (2: 1-5 mg/L) | 2 (2: 1-5 mg/L) | 2 (2: 5-20 mg/L) | 2 (2: 5-20 mg/L) | 3 (3: 1-5 mg/L) | 1 (1: ≥5 mg/L)
5 | CCc1ccc(OCCCCCC2=NN=C(N)SC2)cc1 | 4 (4: <0.2 mg/L) | 4 (4: <0.2 mg/L) | 4 (4: <0.2 mg/L) | 3 (3: 0.2-1 mg/L) | 4 (4: <0.2 mg/L) | 4 (4: <1 mg/L) | 4 (4: <1 mg/L) | 4 (4: <1 mg/L) | 3 (3: 0.2-1 mg/L)
6 | Cc1cccc(C2=NN=C(N)SC2)c1 | 1 (1: ≥5 mg/L) | 2 (2: 1-5 mg/L) | 2 (2: 1-5 mg/L) | 1 (1: ≥5 mg/L) | 2 (2: 1-5 mg/L) | 1 (1: ≥20 mg/L) | 1 (1: ≥20 mg/L) | 1 (1: ≥20 mg/L) | 1 (1: ≥5 mg/L)
7 | Cc1ccc(C2=NN=C(N)SC2)cc1 | 3 (3: 0.2-1 mg/L) | 3 (3: 0.2-1 mg/L) | 2 (2: 1-5 mg/L) | 3 (3: 0.2-1 mg/L) | 3 (3: 0.2-1 mg/L) | 1 (1: ≥20 mg/L) | 1 (1: ≥20 mg/L) | 2 (2: 5-20 mg/L) | 3 (3: 0.2-1 mg/L)
8 | CCCCOC(=O)c1ccc(C2=NN=C(N)SC2)cc1 | 3 (3: 0.2-1 mg/L) | 3 (3: 0.2-1 mg/L) | 2 (2: 1-5 mg/L) | 3 (3: 0.2-1 mg/L) | 2 (2: 1-5 mg/L) | 1 (1: ≥20 mg/L) | 1 (1: ≥20 mg/L) | 1 (1: ≥20 mg/L) | 3 (3: 0.2-1 mg/L)
9 | CCOC(=O)CC1=NN=C(N)SC1 | 2 (2: 1-5 mg/L) | 3 (3: 0.2-1 mg/L) | 3 (3: 0.2-1 mg/L) | 2 (2: 1-5 mg/L) | 3 (3: 0.2-1 mg/L) | 3 (3: 1-5 mg/L) | 2 (2: 5-20 mg/L) | 3 (3: 1-5 mg/L) | 2 (2: 1-5 mg/L)
